# In patent US20180028982A1, “CONTAINER WITH BIOFILM FORMATION-INHIBITING MICROORGANISMS IMMOBILIZED THEREIN AND MEMBRANE WATER TREATMENT APPARATUS USING THE SAME” (SNU R&DB FOUNDATION, priority 2010, published 2018):
# Tested on: AI-2 quorum sensing mechanism
# Test: Inhibition of AI-2 quorum sensing, bioluminescence of Vibrio harveyi BB170 after reaction with Vibrio harveyi BB152 samples
# Type: cell-based
# Settings: farnesol 800 μM on Vibrio harveyi BB152, reaction for 90 minutes, versus no farnesol (Control)
# Source text: The effect of inhibition of quorum sensing for certain microorganisms (bacteria) for water treatment by farnesol secreted by the biofilm formation-inhibiting microorganisms, i.e., Candida albicans is thought to be attributed to the inhibition of quorum sensing mechanism using AI-2 signal molecules, which was indirectly assessed by means of Vibrio harveyi BB152, a bacteria producing only AI-2, and Vibrio harveyi BB170, bacteria allowing bioluminescence by specifically accepting only AI-2. Particularly, Vibrio harveyi BB152 producing only AI-2 signal molecules was inoculated in an AB medium (Autoinducer Bioassay medium, Tega et al., 2011) and cultivated to a certain degree of optical density (O.D.600) of 0.1-0.3. Farnesol was injected to attain final concentration of 800 μM (and no farnesol was injected for its comparison), each sample was taken after reaction for 90 minutes, and the each sample was reacted with Vibrio harveyi BB170 to measure bioluminescence. As a result, the bioluminescence of Vibrio harveyi BB170 was decreased by about 42 percents for the case of […] (designated as “Control”) when compared to the case of injecting the farnesol (see FIG. 18).
compound,measurement,value
"CC(C)=CCCC(C)=CCCC(C)=CCO [Farnesol, farnesol]",decrease of bioluminescence of Vibrio harveyi BB170,about 42 percents
